The text below walks through data of patent publication US12661336B2, “Polymorphs of phenyl pyrrole aminoguandium salts” (SYNACT PHARMA APS, priority 2021, dated 2026).

Where a name gives a salt, the structure may show the parent alone. Read-outs that look alike come from different tables or passages of the source.

Data set [1] can be described thus: Thermodynamic solubility of AP1189 salts in 0.5 M and 0.2 M buffer solutions (Example 6, Tables 38a, 38b). The following applies: for XRPD analysis of residual solids from solubility experiment / Solubility (mM freebase): 0.5 M buffer; for Solubility (mM freebase): 24 h.
For data set [2] the following is noted: buffer solution pH 1.2, pH adjusted to 1.2 with concentrated hydrochloric acid, samples fully dissolved, HPLC.
Method: As a result, the pH was adjusted to 1.2 with concentrated hydrochloric acid in both solutions. Both sample preparations were diluted 500 times with the sample diluent (acetonitrile:water 1:1 v/v).
The conditions of data set [3]: 40° C./75% RH for 24 hours.
Method: The resulting mixture was thermally cycled for 3 days between 40° C. and 5° C. (Ramp rate: 0.1° C./min with isothermal holds of 1 hour at 40° C. and 5° C.).
The resulting mixture was thermally cycled for 3 days between 40° C. and 5° C. (Ramp rate: 0.1° C./min with isothermal holds of 1 hour at 40° C. and 5° C.). Solids were isolated by centrifuge filtration and analysed wet by XRPD. Sample was dried at 40° C. under vacuum for 24 hours then reanalysed by XRPD.
The resulting mixture was thermally cycled for 3 days between 40° C. and 5° C. (Ramp rate: 0.1° C./min with isothermal holds of 1 hour at 40° C. and 5° C.). Solids were isolated by centrifuge filtration and analysed wet by XRPD.

Consider `CC(=O)O.N=C(N)NN=CC=Cc1cccn1-c1ccccc1[N+](=O)[O-]` [AP1189 acetate, N-{3-[1-(2-nitrophenyl)-1H-pyrrol-2-yl]-allylidene}-aminoguanidinium acetate], for which the “XRPD analysis of residual solids from solubility experiment” value in data set [1] (pH 1.2) is reported as “a likely HCl salt (assigned as HCl Pattern 1) was formed”; in data set [1] (pH 4.5), “remained”. Besides, the “solubility, comparison of salts (in words)” value in data set [1] (0.5 M buffers, succinate Pattern 1 compared with fumarate Pattern 1) was “highest solubility”. The “solubility at pH 1.2 (in words)” value in data set [1] (pH 1.2) was “high solubility”. Moreover, the “Determined concentration in pH 1.2 samples, pH 1.2 (time)” value is over 223 mg/mL in data set [2] and >617 mM (5 h) in data set [2] (time: acetate 5 h, succinate 0.5 h).
Take `N=C(N)NN=CC=Cc1cccn1-c1ccccc1[N+](=O)[O-].O=S(=O)(O)NC1CCCCC1` [Cyclamic Acid Pattern 5, N-{3-[1-(2-nitrophenyl)-1H-pyrrol-2-yl]-allylidene}-aminoguanidinium cyclamate]: the “XRPD diffractogram after storage” value in data set [3] was “consistent with pattern 5”.
With `N=C(N)N/N=C/C=C/c1cccn1-c1ccccc1[N+](=O)[O-]` [Fumarate Salt Pattern 1 (Form D)], the “Solubility (mM freebase)” value came to 7.84 mM freebase in data set [1] (pH 1.2, thermodynamic solubility) and 1.64 mM freebase in data set [1] (pH 4.5, thermodynamic solubility).
As for “N-{3-[1-(2-nitrophenyl)-1H-pyrrol-2-yl]-allylidene}-aminoguanidine glutaric acid salt [Glutaric Acid Pattern 1]”, the “XRPD diffractogram after storage” value in data set [3] is listed as “resulted in a new pattern by XRPD (Pattern 4)”.
The same measure, in the same setting: the value for “N-{3-[1-(2-nitrophenyl)-1H-pyrrol-2-yl]-allylidene}-aminoguanidinium edisylate [Ethane-1,2-disulfonic Acid Pattern 5]” was “consistent with pattern 1”.
